# Measured values reported in patent US7393845B2 (H. Lundbeck A/S, priority 2001, dated 2008).
# Where two headings read alike, the source gives them in different places.
# How the values were obtained:
# [1] = biological target: T1, cloned 5-HT1A receptors (Homo sapiens, UniProt P08908); experiment: 5-HT1A antagonistic activity: antagonism of 5-HT induced inhibition of forskolin induced cAMP accumulation in transfected HeLa cells (HA7); type: cell-based
# T1 construct: expressed in transfected cells
# T1 sequence (P08908 1-422): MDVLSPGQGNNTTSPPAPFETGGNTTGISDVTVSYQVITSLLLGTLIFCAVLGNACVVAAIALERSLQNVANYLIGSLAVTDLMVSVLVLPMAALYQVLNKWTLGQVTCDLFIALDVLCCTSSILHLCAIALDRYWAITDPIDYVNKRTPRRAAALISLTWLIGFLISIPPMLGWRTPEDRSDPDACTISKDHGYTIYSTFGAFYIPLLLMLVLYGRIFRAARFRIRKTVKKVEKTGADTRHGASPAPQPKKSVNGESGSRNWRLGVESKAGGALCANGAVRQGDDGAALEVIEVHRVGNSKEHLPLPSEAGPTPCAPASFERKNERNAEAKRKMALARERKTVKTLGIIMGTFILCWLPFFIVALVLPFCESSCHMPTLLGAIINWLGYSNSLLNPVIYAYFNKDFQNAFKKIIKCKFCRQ
# Experimental: The 5-HT1A antagonistic activity of some of the compounds of the invention has been estimated in vitro at cloned 5-HT1A receptors stably expressed in transfected HeLa cells (HA7). In this test, 5-HT1A antagonistic activity is estimated by measuring the ability of the compounds to antagonize the 5-HT induced inhibition of forskolin induced cAMP accumulation. The assay was performed as a modification of the method described by Pauwels, P. J. et al. Biochem. Pharmacol. 1993, 45, 375.
# [2] = biological target: T2, human 5-HT1A receptors (Homo sapiens, UniProt P08908); experiment: Inhibition of 3H-5-CT binding to human 5-HT1A receptors
# T2 construct: expressed in transfected cells; cell homogenate
# T2 sequence (P08908 1-422): T1 sequence (P08908 1-422)
# Experimental: The affinity of the compounds of the invention to 5-HT1A receptors was determined by measuring the inhibition of binding of a radioactive ligand at 5-HT1A receptors as described in the following test:
# Inhibition of ^3H-5-CT Binding to Human 5-HT1A Receptors.
# By this method the inhibition by drugs of the binding of the 5-HT1A agonist ^3H-5-carboxamido tryptamine (^3H-5-CT) to cloned human 5-HT1A receptors stably expressed in transfected HeLa cells (HA7) (Fargin, A. et al. J. Biol. Chem. 1989, 264, 14848) is determined in vitro. The assay was performed as a modification of the method described by Harrington, M. A. et al. J. Pharmacol. Exp. Ther. 1994, 268, 1098. Human 5-HT1A receptors (40 μg of cell homogenate) were incubated for 15 minutes at 37° C. in 50 mM Tris buffer at pH 7.7 in the presence of ^3H-5-CT. Non-specific binding was determined by including 10 μM of metergoline. The reaction was terminated by rapid filtration through Unifilter GF/B filters on a Tomtec Cell Harvester. Filters were counted in a Packard Top Counter.
# [3] = cloned human 5-HT1A receptors in HeLa cells (HA7), 15 minutes at 37° C., pH 7.7, read-out: IC50, inhibition of 3H-5-CT binding to human 5-HT1A receptors
IC50 [1] [nM],"IC50 [2, 3] [nM]",Compound,IC50 [2] [nM]
< 7000,< 300,"Cc1cc(C(F)(F)F)c(C#N)c(SCCN2CCN(c3cccc4c3OCCO4)CC2)n1 [Compound 1b, 2-{2-[4-(2,3-Dihydrobenzo[1,4]dioxin-5-yl)piperazin-1-yl]ethylsulfanyl}-6-methyl-4-trifluoromethylnicotinonitrile]",–
< 7000,–,"Cc1ccc(C#N)c(SCCN2CCN(c3ccc(C#N)c4c3OCCO4)CC2)n1 [Compound 1e, {2-[4-(8-Cyano-2,3-dihydrobenzo[1,4]dioxin-5-yl)piperazin-1-yl]ethylsulfanyl}-6-methylnicotinonitrile]",–
< 7000,–,"N#Cc1ccc(N2CCN(CCCSc3ccc(C(F)(F)F)cn3)CC2)c2c1OCCO2 [Compound 1v, 2-{3-[4-(8-Cyano-2,3-dihydrobenzo[1,4]dioxin-5-yl)piperazin-1-yl]propylsulfanyl}-5-trifluoromethylpyridine]",–
–,–,N#Cc1cccnc1SCCN1CCN(c2cccc3c2OCCO3)CC1 [Compound 2a],< 300
–,< 300,"Cc1cc(C)c(C#N)c(SCCN2CCN(c3cc(Cl)cc4c3OCC(=O)N4)CC2)n1 [Compound 2aa, 2-[2-[4-(6-Chloro-2,3-dihydro-1,4-benzoxazin-3-on-8-yl)piperazin-1-yl]ethylsulfanyl]-4,6-dimethylnicotinonitrile]",–
–,< 300,"N#Cc1cccnc1SCCN1CCN(c2cc(Cl)cc3c2OCCN3)CC1 [Compound 2ah, 2-[2-[4-(6-Chloro-2,3-dihydro-1,4-benzoxazin-8-yl)piperazin-1-yl]ethylsulfanyl]nicotinonitrile]",–
–,< 300,"Cc1cc(C)c(C#N)c(SCCN2CCN(c3cc(Cl)cc4c3OCCN4)CC2)n1 [Compound 2ai, 2-[2-[4-(6-Chloro-2,3-dihydro-1,4-benzoxazin-8-yl)piperazin-1-yl]ethylsulfanyl]-4,6-dimethylnicotinonitrile]",–
–,< 300,"Cc1cc(Cl)nc(SCCN2CCN(c3cc(Cl)cc4c3OCCN4)CC2)c1C#N [Compound 2aj, 6-Chloro-2-[2-[4-(6-chloro-2,3-dihydro-1,4-benzoxazin-8-yl)piperazin-1-yl]ethylsulfanyl]-4-methylnicotinonitrile]",–
–,< 300,"Cc1cc(N2CCCCC2)nc(SCCN2CCN(c3ccc(C#N)c4c3OCCO4)CC2)c1C#N [Compound 2c, 2-{2-[4-(8-Cyano-2,3-dihydrobenzo[1,4]dioxin-5-yl)piperazin-1-yl]ethylsulfanyl}-4-methyl-6-(piperidin-1-yl)nicotinonitrile]",–
–,< 300,"Cc1cc(C)c(S(=O)(=O)c2ccccc2)c(SCCN2CCN(c3cccc4c3OCCO4)CC2)n1 [Compound 2l, 2-{3-[4-(2,3-Dihydrobenzo[1,4]dioxin-5-yl)piperazin-1-yl]ethylsulfanyl}-4,6-dimethyl-3-phenylsulfonylpyridine]",–
–,< 300,"Cc1cc(Cl)nc(SCCN2CCN(c3cccc4c3OCCO4)CC2)c1C#N [Compound 2o, 6-Chloro-2-{3-[4-(2,3-dihydrobenzo[1,4]dioxin-5-yl)piperazin-1-yl]ethylsulfanyl}-4-methylnicotinonitrile]",–
–,< 300,"Cc1cc(C)c(C#N)c(SCCN2CCN(c3ccc(C#N)c4c3OCCO4)CC2)n1 [Compound 2s, 2-{3-[4-(8-Cyano-2,3-dihydrobenzo[1,4]dioxin-5-yl)piperazin-1-yl]ethylsulfanyl}-4,6-dimethylnicotinonitrile]",–
–,< 300,"Cc1nc(SCCN2CCN(c3ccc(C#N)c4c3OCCO4)CC2)c(C#N)c(C)c1Cl [Compound 2u, 5-Chloro-2-{3-[4-(8-cyano-2,3-dihydrobenzo[1,4]dioxin-5-yl)piperazin-1-yl]ethylsulfanyl}-4,6-dimethylnicotinonitrile]",–
–,< 300,"N#Cc1cccnc1SCCN1CCN(c2cc(Cl)cc3c2OCC(=O)N3)CC1 [Compound 2z, 2-[2-[4-(6-Chloro-2,3-dihydro-1,4-benzoxazin-3-on-8-yl)piperazin-1-yl]ethylsulfanyl]nicotinonitrile]",–
